{"source": "patent US10450288B2", "about": "“Hydroxy formamide derivatives and their use” (GLAXOSMITHKLINE INTELLECTUAL PROPERTY (NO.2) LIMITED, priority 2014, dated 2019)", "data": [{"system": "human cardiac fibroblasts", "test": "Cell-based inhibition assay of generation of procollagen I C-terminal propeptide (PICP), PICP ELISA", "conditions": "Cardiac fibroblast; human cardiac fibroblasts, crowding media, 24 to 48 hr, PICP ELISA of media; read-out: pIC50, PICP cellular inhibition assay (converted)", "experimental": "(§1) Cell-Based Inhibition Assay of Generation of Procollagen I C-Terminal Propeptide (PICP) and Mature Collagen:\n(§2) An adaptation of the collagen deposition assay described by Chen, C. Z. C., et al., British Journal of Pharmacology, 2009, 158, 1196-1209 was used to examine effect of compounds on procollagen I processing and collagen deposition. In the adapted assay, human cardiac fibroblasts were utilized. Processing of procollagen I was determined by a PICP ELISA assay and deposition of mature collagen was determined by immunostaining.\n(§3) Human cardiac fibroblasts were cultured and maintained until passage 6 in FGM-3 media (Lonza, #CC-3132) in a 37° C. humidified incubator with 5% CO2. They were then seeded in 96-well black wall, clear bottom plates at 10,000 to 15,000 cells per well in eagle's minimum essential media (EMEM, ATCC #30-2003) containing 10% fetal bovine serum (FBS, Life Technologies #10082147), 1% Glutamax (Life Technologies #35050061) and 1% Penicillin and Streptomycin (Life Technologies #15070063). These cultures were placed in 37° C. incubator. The next day, media were removed by aspiration and cells were rinsed with phosphate buffered saline. Crowding media (also called ficoll media) was prepared by adding 112.5 mg/ml of ficoll70 and 75 mg/ml ficoll400 (GE healthcare #17-0310-10 and 17-0300-10, respectively), 100 μM ascorbic acid, 1% Glutamax and 1% Penicillin and Streptomycin to EMEM media. Test compounds (dissolved in DMSO) were diluted into crowding media and then added to the cells. Final concentration of DMSO in crowding media was less than 0.3%. Cells were treated for 24 to 48 hr in a 37° C. incubator. At the end of the treatment period, cell media were collected. The level of PICP in the media were determined by a PICP ELISA assay (Quidel #8003) following the manufacturer's protocol. Potencies of test compounds were calculated by fitting PICP levels, relative to untreated controls, to log (inhibitor) vs. response equation using Graphpad Prism software 5.0 and expressed as pIC50.", "units": {"IC50": "µM"}, "values": [{"smiles": "CCCCC[C@@H](C(=O)NCNC(=O)c1ccc(-c2cc(OCC)cc(C(=O)NCP(=O)(O)O)c2)o1)[C@@H](CC)N(O)C=O", "note": "[Example 100, ((3-ethoxy-5-(5-((((R)-2-((R)-1-(N-hydroxy-formamido)propyl)heptanamido)methyl)carbamoyl)furan-2-yl)benzamido)methyl) phosphonic acid]", "IC50": "< 3.98"}, {"smiles": "CCCCC[C@H](CN(O)C=O)C(=O)NCNC(=O)c1ccc(-c2cccc(OCC(F)F)c2)o1", "note": "[Example 102, (R)-5-(3-(2,2-difluoroethoxy)phenyl)-N-((2-((N-hydroxyformamido)methyl)heptanamido)methyl)furan-2-carboxamide]", "IC50": "< 3.98"}, {"smiles": "CCCCC[C@H](CN(O)C=O)C(=O)NCNC(=O)c1ccc(-c2cccc(SCC)c2)o1", "note": "[Example 103, (R)-5-(3-(ethylthio)phenyl)-N-((2-((N-hydroxyformamido)methyl)heptanamido)methyl)furan-2-carboxamide]", "IC50": "< 3.98"}, {"smiles": "CCCCC[C@H](CN(O)C=O)C(=O)NCNC(=O)c1ccc(-c2cccc(SC)c2)o1", "note": "[Example 104, (R)-N-((2-((N-hydroxyformamido)methyl)heptanamido)methyl)-5-(3-(methylthio)phenyl)furan-2-carboxamide]", "IC50": "< 3.98"}, {"smiles": "CCCCC[C@H](CN(O)C=O)C(=O)NCNC(=O)c1ccc(-c2cccc([N+](=O)[O-])c2)o1", "note": "[Example 105, (R)—N-((2-((N-hydroxyformamido)methyl)heptanamido)methyl)-5-(3-nitrophenyl)furan-2-carboxamide]", "IC50": "< 3.98"}, {"smiles": "CCCCC[C@H](CN(O)C=O)C(=O)NCNC(=O)c1ccc(-c2ccc3cnn(C)c3c2)o1", "note": "[Example 106, (R)—N-((2-((N-hydroxyformamido)methyl)heptanamido)methyl)-5-(1-methyl-1H-indazol-6-yl)furan-2-carboxamide]", "IC50": "< 3.98"}, {"smiles": "CCCCC[C@H](CN(O)C=O)C(=O)NCNC(=O)c1ccc(-c2cccc(P(=O)(O)O)c2)o1", "note": "[Example 108, (R)-(3-(5-(((2-((N-hydroxyformamido)methyl)heptanamido)methyl)carbamoyl)furan-2-yl)phenyl)phosphonic acid]", "IC50": "< 3.98"}, {"smiles": "CCCCC[C@@H](C(=O)NCNC(=O)c1ccc(-c2ccc(C(=O)O)c(CC(=O)O)c2)o1)[C@@H](CC)N(O)C=O", "note": "[Example 114]", "IC50": "< 3.98"}, {"smiles": "CCOc1cc(C(=O)O)c(O)c(-c2ccc(C(=O)NCNC(=O)[C@H](CCc3ccccc3)[C@@H](CC)N(O)C=O)o2)c1", "note": "[Example 115, 5-ethoxy-2-hydroxy-3-(5-((((2R,3R)-3-(N-hydroxyformamido)-2-phenethylpentanamido)methyl)carbamoyl)furan-2-yl)benzoic acid]", "IC50": "< 3.98"}, {"smiles": "CCOc1cc(-c2ccc(C(=O)NCNC(=O)[C@H](CCc3ccc4ccccc4c3)[C@@H](CC)N(O)C=O)o2)ccc1C(=O)N[C@@H](CC(=O)O)C(=O)O", "note": "[Example 117, (S)-2-(2-ethoxy-4-(5-((((2R,3R)-3-(N-hydroxyformamido)-2-(2-(naphthalen-2-yl)ethyl)pentana-mido)methyl)carbamoyl)furan-2-yl)benzamido) succinic acid]", "IC50": "< 3.98"}, {"smiles": "CC[C@H]([C@@H](CCc1ccc(F)cc1F)C(=O)NCNC(=O)c1ccc(-c2cc(OCC(=O)O)cc(C(=O)O)c2O)o1)N(O)C=O", "note": "[Example 118, 5-(carboxymethoxy)-3-(5-((((2R,3R)-2-(2,4-difluorophenethyl)-3-(N-hydroxyformamido)pentanamido)methyl)carbamoyl)furan-2-yl)-2-hydroxybenzoic acid]", "IC50": "< 3.98"}]}, {"system": "human cardiac fibroblasts", "test": "Cell-based inhibition assay of generation of procollagen I C-terminal propeptide (PICP), PICP ELISA", "conditions": "Homo sapiens, Cardiac fibroblast, read-out: pIC50, PICP cellular inhibition assay (converted)", "experimental": "as §1, §2, §3", "units": {"IC50": "µM"}, "values": [{"smiles": "CCCCC[C@@H](C(=O)NCNC(=O)c1ccc(-c2cc(OCC)cc(P(=O)(O)OC)c2)o1)[C@@H](CC)N(O)C=O", "note": "[Example 101, methyl hydrogen (3-ethoxy-5-(5-((((R)-2-((R)-1-(N-hydroxyformamido)propyl)heptanamido)methyl)carbamoyl)furan-2-yl)phenyl)phosphonate]", "IC50": "< 3.98"}]}]}
